# Columns and labels:
# single G-T mismatch = experiment: in vitro repair assay by HeLa cell extracts, G-T mismatch; type: biochemical, human
# Description: Panel A of […] is a schematic of the in vitro repair assay. Starting DNAs and repair products released the repeat-containing fragment, which is resolved on PAGE and assessed on a molar level by Southern blotting and densitometry. Repair of different DNA substrates containing a long (CAG)20 slip-out (Panel B of FIG. 3) long (CTG)20 slip-out (Panel C of FIG. 3), a single CAG slip-out (Panel D of FIG. 3) or a single G-T mismatch (Panel E of FIG. 3), in the absence or in the presence of NA. Slipped-DNA substrates were prepared from hybrids of (CAG)50●(CTG)30, (CAG)30●(CTG)50 or of (CAG)50●(CTG)49. Repair of the G-T mismatch reconstitutes a HindIII restriction site, as shown schematically. Graphs show percentage repair efficiencies to repaired product relative to all repeat-containing fragments in the lane, values are normalized to the NA-free efficiency. […]
# To determine how the binding of NA to slipped DNA structures affects repair, a series of circular slipped heteroduplex substrates was made with an excess of repeats with a nick located either 5′ or 3′ of the slip-out (FIG. 3). […] All these substrates were processed in […] by HeLa extracts and then were assessed for repair. Repair products were analyzed by Southern blotting, probed for the repeat-containing fragment, and compared with starting material, which permitted quantitative assessment of repair efficiency at a molar level. […]
# r(CAG)9 = r(CAG)9 immobilization 524 RU; cited from earlier work
# [1] = system: CAG/CTG R-loops processed by neuron-like human SH-SY5Y cell extracts; experiment: R-loop processing by SH-SY5Y cell extracts, STRIP assay; type: biochemical; conditions: NA 50 μM; p=0.002
# Description: Double-R-loops were then treated with RNaseA or H (labeled “A” or “H”) and incubated with 50 μM of NA. Reaction products were then resolved on 1% agarose gel. […] Pre-formed double-R-loops were processed by terminally differentiated (retinoic acid) human neuron-like cell extracts (SH-SY5Y) in the absence or presence of NA (50 μM), as described and DNA repeat lengths were assessed as expansions, contractions, or stable, by the STRIP assay. […] Transcription products were isolated, processed and transformed in E. coli cells, previously shown to stably maintain the (CAG)79●(CTG)79 lengths. Plasmids isolated from individual bacterial colonies were digested with restriction enzymes to release the repeat containing fragment, resolved on 4% polyacrylamide gels and scored for instability.
# R-loop templates prepared from in vitro transcription and RNase A treatments were incubated with NA and then processed by extracts of HeLa or SH-SY5Y neuroblastoma cells, where the latter were terminally differentiated by retinoic acid, as previously described (Panigrahi et al., 2005, Nat. Struct. & Mol. Biol., 12:654-62). […] Miniprep DNA was analyzed for changes in repeat length by analysis of the repeat-containing fragment on 4% polyacrylamide gels. […]
# [2] = system: CASK, ATXN8, and Mfd15 loci in HT1080-(CAG)850 cells; experiment: repeat-tract lengths of non-expanded loci in HT1080-(CAG)850 cells; type: cell-based, human; conditions: 30 days incubation with or without NA
# Description: FIG. 5 are results from experiments showing that NA induces CAG contractions in HT1080-(CAG)850 cells, independent of proliferation, dependent upon rCAG transcription. […] Panel B of FIG. 5 are histograms showing repeat length distributions in HT1080-(CAG)850 cells. Frequency distribution of unstable alleles is shown by gray bars. Frequency of stable alleles is shown by black bars. To facilitate comparisons, a dashed line indicates the unchanged CAG size. Allele lengths are grouped in bins spanning 50 repeats. […] More than 50 alleles were sized for each group. P-value was calculated by chi-square test (Table 2). […] P-value was calculated by Student's t-test. […] Repeat length distributions and average repeat size changes are shown. […] Quantitative reverse transcription (RT)-PCR was performed using TaqMan Gene Expression assays. […]
# Genomic DNA was extracted from HT1080-(CAG)850 clones and HD primary fibroblasts using the Gentra Puregene Cell Kit (Qiagen, Valencia, Calif.). […] At least 50 alleles were analyzed for each of the three experiments (more than 150 alleles for a total study). […] For the histograms in FIGS. 4D, 4E, 10, 11, 5B, 5D, 5E, 14 and 15B, the Y-axis, “% of repeat population” was calculated by determining the proportion of >50 individual small-pool PCR reactions across the CAG repeat tract, that harbored a certain size of repeat product with a certain length. […]
# [3] = system: plasmid harboring (CAG)79●(CTG)79 repeats, R-loops; experiment: in vitro transcription, R-loop formation, RNase A/H processing and R-loop stability; type: biochemical
# Description: Reaction products were then treated with RNase A (labeled “A”), to cleave all single-stranded RNAs, and resolved on 1% agarose gel. Control treatment with RNaseH (labeled “H”), eliminating RNA:DNA hybrids, was performed to reveal the RNA-free supercoiled DNAs. […] Reaction products then were resolved on 1% agarose gel. […] Double-R-loops were then treated with RNaseA or H (labeled “A” or “H”) and incubated with NA (50 μM). Reaction products were then resolved on 1% agarose gel. […] The position of supercoiled plasmid in dimer or monomer form is indicated by “SC”. The top “SC” represents linked dimers and the bottom “SC” represents monomers. In Panels C, D, and E, NA was either included in the transcription reaction (Panel C), only in the RNAse A/H reaction, only following the RNAse A/H clean-up.
# Transcription reactions were performed as previously described (Reddy et al., 2014, Nuc. Acids Res., 42:10473-87). Briefly, 500 ng of template DNA in 1× transcription buffer (Roche) and 1× bovine serum albumin (NEB) were mixed for 1 h with 20 U of the appropriate RNA polymerase: T7, T3 or T7+T3 (Roche), with or without NA 120 μM. Samples were purified and then treated with either 1 g of RNase A (Roche) alone or with 1 g of RNase A (Roche) and 1 U of E. coli RNase H (Roche), at room temperature for 30 min, in the presence or in the absence of NA (120 μM). All in vitro transcription reaction products were analyzed on 1% agarose gels run in 1×TBE buffer at 80 V for 3 h. Gels were subsequently stained with ethidium bromide (0.5 mg/ml) to allow visualization of total nucleic acid under ultraviolet (UV) light.
substance,measurement,setting,value
naphthyridine-azaquinolone,effect on G-T mismatch repair,single G-T mismatch,no effect
same,changes in the SPR intensity on NA binding,r(CAG)9,8 RU
same,"effect on R-loop processing products (contractions, expansions)",[1],significantly increasing the number of contraction products but not expansion products
same,"length variation at CASK, ATXN8, and Mfd15 loci",[2],Length variation was not observed
same,effect on biophysical stability of R-loops,[3]; NA 50 μM or 500 μM,did not affect the biophysical stability of R-loops
same,effect on R-loop formation,[3]; NA 120 μM during transcription,did not affect R-loop formation
same,effect on transcription in vitro,[3]; T3 or T7 RNA polymerases,nor did it affect transcription in vitro

# Reference: US11672786B2, “Methods of treating diseases associated with repeat instability” (The Hospital for Sick Children, priority 2016, dated 2023)
